Columns and labels:
barnyardgrass [1] = assay: Test C preemergence; type: in vivo, Echinochloa crus-galli; conditions: for Barnyardgrass plant response rating: preemergence; for Plant response rating, Barnyardgrass: Preemergence, 31 g ai/ha, scale 0 to 100, 0 no effect, 100 complete control
Method in brief: (§1)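 Injury was assessed visually against controls 13 to 15 days after application, with 0 meaning no effect and 100 full control; missing entries are shown as a dash. Preemergence sprays hit seeded loam–sand soil, postemergence sprays hit 1- to 4-leaf plants.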

soybean = assay: Test C preemergence; type: in vivo, Glycine max; conditions: for Soybean plant response rating: preemergence; for Plant response rating, Soybean: Preemergence, 31 g ai/ha, scale 0 to 100, 0 no effect, 100 complete control
Method in brief: as §1

waterhemp = assay: Test C preemergence; type: in vivo, Amaranthus rudis; conditions: for Waterhemp plant response rating: preemergence; for Plant response rating, Waterhemp: Preemergence, 31 g ai/ha, scale 0 to 100, 0 no effect, 100 complete control
Method in brief: as §1

morningglory = assay: Test C preemergence; type: in vivo, Ipomoea coccinea; conditions: for Morningglory plant response rating: preemergence; for Plant response rating, Morningglory: Preemergence, 31 g ai/ha, scale 0 to 100, 0 no effect, 100 complete control
Method in brief: as §1

wheat, winter = assay: Test C preemergence; type: in vivo, Triticum aestivum; conditions: for Wheat plant response rating: preemergence; for Plant response rating, Wheat: Preemergence, 31 g ai/ha, scale 0 to 100, 0 no effect, 100 complete control
Method in brief: as §1

ragweed = assay: Test C postemergence; type: in vivo, Ambrosia elatior; conditions: for Plant response rating, Ragweed: scale 0 to 100 (0 no effect, 100 complete control)
Method in brief: as §1

barnyardgrass [2] = assay: Test B flooded paddy test; type: in vivo, Echinochloa crus-galli; conditions: Flood, 250 g ai/ha; 0 to 100 scale where 0 is no effect and 100 is complete control
Method in brief: (§2)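 Scores from 0 (no effect) to 100 (complete control) are visual comparisons with controls, taken 13 to 15 days after compound was applied into floodwater 3 cm deep around 2-leaf plants.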

rice = assay: Test B flooded paddy test; type: in vivo, Oryza sativa; conditions: Flood, 250 g ai/ha; 0 to 100 scale where 0 is no effect and 100 is complete control
Method in brief: as §2

barnyardgrass [3] = assay: Test A postemergence; type: in vivo, Echinochloa crus-galli; conditions: 0 to 100 scale where 0 is no effect and 100 is complete control
Method in brief: (§3)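 Pre- and postemergence greenhouse screen. Soil: loam + sand. Spray carrier: solvent mixture, non-phytotoxic, with surfactant. Post timing at 1–2 leaves, height 2–10 cm. Readout: visual injury on a 0–100 scale roughly 10 days after application, untreated plants as reference.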

pigweed [4] = assay: Test A postemergence; type: in vivo, Amaranthus retroflexus; conditions: 0 to 100 scale where 0 is no effect and 100 is complete control
Method in brief: as §3

pigweed [5] = assay: Test A preemergence; type: in vivo, Amaranthus retroflexus; conditions: for Plant response rating, Pigweed: 125 g ai/ha; for Pigweed plant response rating: 500 g ai/ha
Method in brief: as §3

blackgrass = assay: Test C postemergence; type: in vivo, Alopecurus myosuroides
Method in brief: as §1

large (Lg) crabgrass = assay: Test C postemergence; type: in vivo, Digitaria sanguinalis
Method in brief: as §1

[6] = 16 g ai/ha, scale 0 to 100 (0 no effect, 100 complete control)
[7] = 62 g ai/ha, scale 0 (no effect) to 100 (complete control)
[8] = 125 g ai/ha, scale 0 (no effect) to 100 (complete control)
[9] = 0 to 100 scale where 0 is no effect and 100 is complete control
[10] = 16 g ai/ha, postemergence, visual rating, scale 0 to 100 (0 no effect, 100 complete control), 13 to 15 days
[11] = Postemergence, 31 g ai/ha, scale 0 to 100 (0 no effect, 100 complete control), 13 to 15 days
[12] = Postemergence, 62 g ai/ha, scale 0 to 100 (0 no effect, 100 complete control)
[13] = 16 g ai/ha, postemergence, 0 is no effect, 100 is complete control
[14] = 125 g ai/ha, postemergence, visual rating, scale 0 to 100 (0 no effect, 100 complete control)

| Compound | Barnyardgrass plant response rating (barnyardgrass [1]; [6]) | Barnyardgrass plant response rating (barnyardgrass [1]; [7]) | Barnyardgrass plant response rating (barnyardgrass [1]; [8]) | Plant response rating, Barnyardgrass (barnyardgrass [1]) | Soybean plant response rating (soybean; [6]) | Soybean plant response rating (soybean; [7]) | Soybean plant response rating (soybean; [8]) | Plant response rating, Soybean (soybean) | Waterhemp plant response rating (waterhemp; [6]) | Waterhemp plant response rating (waterhemp; [7]) | Waterhemp plant response rating (waterhemp; [8]) | Plant response rating, Waterhemp (waterhemp) | Morningglory plant response rating (morningglory; [6]) | Morningglory plant response rating (morningglory; [7]) | Morningglory plant response rating (morningglory; [8]) | Plant response rating, Morningglory (morningglory) | Wheat plant response rating (wheat, winter; [6]) | Wheat plant response rating (wheat, winter; [7]) | Wheat plant response rating (wheat, winter; [8]) | Plant response rating, Wheat (wheat, winter) | other results |
| --- | --- | --- | --- | --- | --- | --- | --- | --- | --- | --- | --- | --- | --- | --- | --- | --- | --- | --- | --- | --- | --- |
| N#Cc1cccc(Oc2ncc(Br)cn2)c1-n1cc(I)cn1 [Compound 88] | 5 | 35 | 95 | 5 | 0 | 40 | 90 | 5 | 98 | 100 | 100 | 100 | 0 | 40 | 90 | 5 | 0 | 0 | 5 | 0 | Plant response rating (0 to 100), Ragweed (ragweed; 125 g ai/ha, postemergence): 60; Plant response rating, Ragweed (ragweed; Postemergence, 31 g ai/ha, 13 to 15 days): 55; Plant response rating, Ragweed (ragweed; Postemergence, 62 g ai/ha): 55; Plant response rating, Barnyardgrass (barnyardgrass [2]): 0; Plant response rating, Rice (rice): 0; Plant response rating, Barnyardgrass (barnyardgrass [3]; 125 g ai/ha): 60; Plant response rating, Barnyardgrass (barnyardgrass [3]; 500 g ai/ha): 80; Plant response rating, Pigweed (pigweed [4]; 125 g ai/ha): 100; Plant response rating, Pigweed (pigweed [4]; 500 g ai/ha): 100; Plant response rating, Pigweed (pigweed [5]; [9]): 100; Pigweed plant response rating (pigweed [5]; 0 to 100 scale, 0 no effect, 100 complete control, approx. 10 days): 100; Blackgrass plant response rating (blackgrass; [10]): 5; Plant response rating (0 to 100), Blackgrass (blackgrass; 125 g ai/ha, postemergence): 10; Plant response rating, Blackgrass (blackgrass; [11]): 10; Plant response rating, Blackgrass (blackgrass; [12]): 10; Crabgrass, Large plant response rating (large (Lg) crabgrass; [10]): 5; Plant response rating (0 to 100), Crabgrass, Large (large (Lg) crabgrass; 125 g ai/ha, postemergence): 10; Plant response rating, Crabgrass, Large (large (Lg) crabgrass; [11]): 5; Plant response rating, Crabgrass, Large (large (Lg) crabgrass; [12]): 10 |
| Clc1cnc(Oc2cccc(Br)c2-n2cc(Br)nn2)nc1 [Compound 129] | 5 | 40 | 90 | 15 | 10 | 40 | 80 | 10 | 100 | 100 | 100 | 100 | 5 | 45 | 75 | 35 | 0 | 0 | 15 | 0 | Plant response rating (0 to 100), Ragweed (ragweed; [13]): 15; Plant response rating, Ragweed (ragweed; 125 g ai/ha, postemergence, visual rating): 85; Plant response rating, Ragweed (ragweed; Postemergence, 62 g ai/ha): 40; Plant response rating, Barnyardgrass (barnyardgrass [2]): 0; Plant response rating, Rice (rice): 0; Barnyardgrass plant response rating (barnyardgrass [3]; 125 g ai/ha): 90; Plant response rating, Barnyardgrass (barnyardgrass [3]; 500 g ai/ha): 90; Pigweed plant response rating (pigweed [4]; 125 g ai/ha): 100; Plant response rating, Pigweed (pigweed [4]; 500 g ai/ha): 100; Plant response rating, Pigweed (pigweed [5]; [9]): 100; Pigweed plant response rating (pigweed [5]; [9]): 100; Plant response rating (0 to 100), Blackgrass (blackgrass; [13]): 5; Plant response rating, Blackgrass (blackgrass; [14]): 10; Plant response rating, Blackgrass (blackgrass; [11]): 5; Plant response rating, Blackgrass (blackgrass; [12]): 5; Plant response rating (0 to 100), Crabgrass, Large (large (Lg) crabgrass; [13]): 5; Plant response rating, Crabgrass, Large (large (Lg) crabgrass; [14]): 10; Plant response rating, Crabgrass, Large (large (Lg) crabgrass; [12]): 5 |

Source: patent US9695155B2, “Herbicidal substituted pyrimidinyloxy benzene compounds” (E. I. DU PONT DE NEMOURS AND COMPANY, priority 2013, dated 2017)
